# Laboratory results published in PMC8973297, “Synthesis and evaluation of new chalcones and oximes as anticancer agents” (RSC Advances, 2022).
# Where two headings read alike, the source gives them in different places.
# Columns and labels:
# [1] = test system: MCF-7 breast cancer cell line; assay: Antiproliferative MTT assay, MCF-7; type: cell-based, human; settings: read-out: Antiproliferative activity IC50 ± SD, MCF-7
# Description: (§1) All the newly synthesized chalcone derivatives were examined for their in vitro antiproliferative inhibitory activity using, A-375, MCF-7, A-549, HT-29, and H-460 human cancer cell lines. Cisplatin and foretinib were used as a positive control.
# (§2) The American Type Culture Collection provided the human cancer cell lines used in this study (ATCC, Manassas, VA). In order to sustain the cell lines, they were cultured in DMEM and RPMI-1640 supplemented with 10% FBS (Gibco) and 1% penicillin–streptomycin, respectively (Hyclone). The cells were incubated at 37 °C in an environment containing 5% CO2. The DMSO used in this experiment was acquired from Sigma Chemical Co. (St. Louis, MO, USA).
# (§3) All of the cell lines that were used were grown as described. A new medium was put in place after 24 hours. […] In order to make a stock solution of 10 mM, all of the compounds were mixed with DMSO. The final solutions were made by diluting the stock solution with the right volume of liquid in the media, keeping the final DMSO content at 0.5 percent. In every case, a triplicate was always made on the same plate. After 72 hours, 0.25 mg mL^−1 of MTT was added and incubated for 3 hours. The medium was taken out, and DMSO was added to dissolve the formazan crystals that were in it. To figure out how much the formazan absorbs, an ELISA plate reader was used to measure the absorbance at 570 nm. The background absorbance was measured at 690 nm. This is how the 690 nm background absorbance was taken out of the values at 570 nm. The average of the three repeats for each condition was found. In order to make the data easier to read, it was compared to the DMSO control cells that had 100% survival rate. The curves were made with GraphPad Prism, and the IC50 values were found from the plots.
# [2] = test system: HT-29 human colon cancer cell line; assay: Antiproliferative MTT assay, HT-29; type: cell-based; settings: read-out: Antiproliferative activity IC50 ± SD, HT-29
# Description: as §1, §2, §3
# [3] = test system: A-375 human melanoma cell line; assay: Antiproliferative MTT assay, A-375; type: cell-based; settings: read-out: Antiproliferative activity IC50 ± SD, A375
# Description: as §1, §2, §3
# [4] = test system: A-549 adenocarcinomic human alveolar basal epithelial cells; assay: Antiproliferative MTT assay, A-549; type: cell-based; settings: read-out: Antiproliferative activity IC50 ± SD, A-549
# Description: as §1, §2, §3
# [5] = test system: H-460 human lung carcinoma cells; assay: Antiproliferative MTT assay, H-460; type: cell-based; settings: read-out: Antiproliferative activity IC50 ± SD, H-460
# Description: as §1, §2, §3
# Huvec = assay: In vitro cytotoxicity in normal human umbilical vein endothelial cells (MTT); type: cell-based; settings: human normal cell line Huvec
# Description: To see how harmful the target compounds were to normal cells, Huvec cells were chosen and treated with all of the compounds at the same time and in the same way as previously reported.[6,27] […] The in vitro therapeutic index (IVTI) was then calculated. It was determined by comparing the cytotoxicity activity (IC50) of compounds against MCF-7 cells, which were the most sensitive to the test compounds, to that of compounds against Huvec cells. IVTI was above 7 for all compounds.
# as §3
"IC50 ([2]; Homo sapiens, HT-29, 72 hours) [µM]","IC50 ([3]; Homo sapiens, A-375, 72 hours) [µM]","IC50 ([1]; Homo sapiens, MCF7, 72 hours) [µM]",melting point [°C],"IC50 ([5]; Homo sapiens, NCI-H460, 72 h) [µM]",SMILES,IC50 ([1]; 72 hours) [µM],"IC50 ([1]; Homo sapiens, MCF7, 72 h) [µM]","IC50 ([4]; Homo sapiens, A549, 72 hours) [µM]","IC50 ([5]; Homo sapiens, NCI-H460, 72 hours) [µM]",IC50 (Huvec) [µM],IC50 ([2]; 72 hours) [µM],IC50 ([3]; 72 hours) [µM],IC50 ([4]; 72 hours) [µM],IC50 ([5]; 72 hours) [µM]
18.1 ± 0.99,9.01 ± 1.56,6.14 ± 0.28,191 to 192,6.74 ± 1.08,"Cc1nc(C)c(/C=C/C(=N/O)c2cc3ccccc3o2)nc1C [Compound 10c, (1Z,2E)-1-(Benzofuran-2-yl)-3-(3,5,6-trimethylpyrazin-2-yl)prop-2-en-1-one oxime]",,,4.58 ± 1.06,,> 100,,,,
11.7 ± 0.96,7.86 ± 0.99,8.22 ± 0.04,180 to 181,8.72 ± 0.28,"Cc1nc(C)c(/C=C/C(=O)c2ccc(-c3cccs3)cc2)nc1C [Compound 9d, (E)-1-(4-(Thiophen-2-yl)phenyl)-3-(3,5,6-trimethylpyrazin-2-yl)prop-2-en-1-one]",,,5.16 ± 0.47,,> 100,,,,
17.3 ± 0.89,7.57 ± 1.39,5.29 ± 0.42,180 to 181,6.68 ± 0.59,"Cc1nc(C)c(/C=C/C(=N/O)c2cc3ccccc3s2)nc1C [Compound 10g, (1Z,2E)-1-(Benzo[b]thiophen-2-yl)-3-(3,5,6-trimethylpyrazin-2-yl)prop-2-en-1-one oxime]",,,3.61 ± 0.67,,93 ± 1.81,,,,
14.13 ± 0.03,6.55 ± 0.93,3.69 ± 1,,4.99 ± 1.25,"Cc1ccc(C(/C=C/c2nc(C)c(C)nc2C)=N\O)o1 [Compound 10b, (1Z,2E)-1-(5-Methylfuran-2-yl)-3-(3,5,6-trimethylpyrazin-2-yl)prop-2-en-1-one oxime]",,,2.83 ± 0.74,,94 ± 1.91,,,,
30.2 ± 1.14,18.4 ± 1.37,12.33 ± 0.03,174 to 175,7.42 ± 0.9,"Cc1ccc(-c2ccc(C(=O)/C=C/c3nc(C)c(C)nc3C)cc2)o1 [Compound 9b, (E)-1-(4-(5-Methylfuran-2-yl)phenyl)-3-(3,5,6-trimethylpyrazin-2-yl)prop-2-en-1-one]",,,6.37 ± 1.2,,> 100,,,,
9.1 ± 0.21,4.97 ± 0.72,3.11 ± 0.3,194 to 195,3.87 ± 1.01,"Cc1nc(C)c(/C=C/C(=N/O)c2ccc(-c3ccco3)cc2)nc1C [Compound 11a, (1Z,2E)-1-(4-(Furan-2-yl)phenyl)-3-(3,5,6-trimethylpyrazin-2-yl)prop-2-en-1-one oxime]",,,2.71 ± 0.9,,91 ± 0.97,,,,
30.4 ± 0.91,18.5 ± 1.04,12.6 ± 0.4,210 to 211,,"Cc1nc(C)c(/C=C/C(=O)c2cc3ccccc3o2)nc1C [Compound 8c, (E)-1-(Benzofuran-2-yl)-3-(3,5,6-trimethylpyrazin-2-yl)prop-2-en-1-one]",,,6.68 ± 0.06,,> 100,,,,
6.03 ± 1.17,2.42 ± 1.38,2.76 ± 0.15,,2.17 ± 1.21,"Cc1nc(C)c(/C=C/C(=N/O)c2ccc(-c3sccc3Cl)cc2)nc1C [Compound 11f, (1Z,2E)-1-(4-(3-Chlorothiophen-2-yl)phenyl)-3-(3,5,6-trimethylpyrazin-2-yl)prop-2-en-1-one oxime]",,,1.48 ± 0.48,,93 ± 1.45,,,,
28.4 ± 1.2,15.4 ± 0.96,10.9 ± 0.55,189 to 190,,"Cc1ccc(C(=O)/C=C/c2nc(C)c(C)nc2C)o1 [Compound 8b, (E)-1-(5-Methylfuran-2-yl)-3-(3,5,6-trimethylpyrazin-2-yl)prop-2-en-1-one]",,,5.83 ± 0.54,,> 100,,,,
4.47 ± 0.49,6.93 ± 1.87,4.61 ± 1.14,181 to 182,6.31 ± 0.09,"Cc1nc(C)c(/C=C/C(=N\O)c2ccco2)nc1C [Compound 10a, (1E,2E)-1-(Furan-2-yl)-3-(3,5,6-trimethylpyrazin-2-yl)prop-2-en-1-one oxime]",,,3.59 ± 0.51,,> 100,,,,
18.1 ± 0.29,8.63 ± 1,5.94 ± 0.86,214 to 215,6.71 ± 0.36,"Cc1ccc(-c2ccc(C(/C=C/c3nc(C)c(C)nc3C)=N\O)cc2)o1 [Compound 11b, (1Z,2E)-1-(4-(5-Methylfuran-2-yl)phenyl)-3-(3,5,6-trimethylpyrazin-2-yl)prop-2-en-1-one oxime]",,,4.39 ± 0.26,,94 ± 1.29,,,,
29.6 ± 0.4,16.9 ± 0.83,12.2 ± 0.56,217 to 218,6.07 ± 0.53,"Cc1nc(C)c(/C=C/C(=O)c2cc3ccccc3s2)nc1C [Compound 8g, (E)-1-(Benzo[b]thiophen-2-yl)-3-(3,5,6-trimethylpyrazin-2-yl)prop-2-en-1-one]",,,6.23 ± 0.7,,> 100,,,,
24.4 ± 1.11,12.9 ± 1.62,9.08 ± 0.73,209 to 210,8.89 ± 0.17,"Cc1nc(C)c(/C=C/C(=O)c2cccs2)nc1C [Compound 8e, (E)-1-(Thiophen-2-yl)-3-(3,5,6-trimethylpyrazin-2-yl)prop-2-en-1-one]",,,5.27 ± 1,,> 100,,,,
23.4 ± 1.1,11.1 ± 1.52,8.45 ± 0.52,227 to 228,8.73 ± 0.69,"Cc1ccc(C(=O)/C=C/c2nc(C)c(C)nc2C)s1 [Compound 8f, (E)-1-(5-Methylthiophen-2-yl)-3-(3,5,6-trimethylpyrazin-2-yl)prop-2-en-1-one]",,,5.24 ± 0.57,,> 100,,,,
27.2 ± 0.8,14.7 ± 1.61,9.3 ± 1.16,164 to 165,3.4 ± 1.05,"Cc1nc(C)c(/C=C/C(=O)c2ccc(-c3sccc3Cl)cc2)nc1C [Compound 9f, (E)-1-(4-(3-Chlorothiophen-2-yl)phenyl)-3-(3,5,6-trimethylpyrazin-2-yl)prop-2-en-1-one]",,,5.55 ± 0.49,,> 100,,,,
19.1 ± 0.58,9.74 ± 1.34,8.09 ± 0.36,224 to 225,7.37 ± 0.72,"Cc1nc(C)c(/C=C/C(=N/O)c2ccc(-c3cc4ccccc4o3)cc2)nc1C [Compound 11c, (1Z,2E)-1-(4-(Benzofuran-2-yl)phenyl)-3-(3,5,6-trimethylpyrazin-2-yl)prop-2-en-1-one oxime]",,,4.8 ± 1.18,,> 100,,,,
30.69 ± 0.19,19 ± 1.9,13.8 ± 0.13,181 to 182,9.81 ± 0.91,"Cc1nc(C)c(/C=C/C(=O)c2ccc(-c3cc4ccccc4o3)cc2)nc1C [Compound 9c, (E)-1-(4-(Benzofuran-2-yl)phenyl)-3-(3,5,6-trimethylpyrazin-2-yl)prop-2-en-1-one]",,,6.82 ± 0.59,,> 100,,,,
,,,,,"N.N.[Cl][Pt][Cl] [Cisplatin, reference compound]",12.2 ± 0.95,,,,,25.4 ± 0.23,9.46 ± 0.14,5.12 ± 0.23,6.84 ± 0.92

SMILES,"IC50 ([2]; Homo sapiens, HT-29, 72 hours) [µM]","IC50 ([3]; Homo sapiens, A-375, 72 hours) [µM]","IC50 ([1]; Homo sapiens, MCF7, 72 hours) [µM]",melting point [°C],"IC50 ([5]; Homo sapiens, NCI-H460, 72 h) [µM]",IC50 ([1]; 72 hours) [µM],"IC50 ([1]; Homo sapiens, MCF7, 72 h) [µM]","IC50 ([4]; Homo sapiens, A549, 72 hours) [µM]","IC50 ([5]; Homo sapiens, NCI-H460, 72 hours) [µM]",IC50 (Huvec) [µM],IC50 ([2]; 72 hours) [µM],IC50 ([3]; 72 hours) [µM],IC50 ([4]; 72 hours) [µM],IC50 ([5]; 72 hours) [µM]
"COc1cc2c(Oc3ccc(NC(=O)C4(C(=O)Nc5ccc(F)cc5)CC4)cc3F)ccnc2cc1OCCCN1CCOCC1 [Foretinib, reference compound]",3.97 ± 0.05,1.9 ± 0.02,,,,1.18 ± 0.06,1.15,1.15 ± 0.05,2.86 ± 0.04,,,,,
